The results in this text go back to PubChem BioAssay (NCI).

Where “and” joins values, the source holds several entries; their conditions need not be identical. Equal entries are not always repeated.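 Protocol summary: plate cells (96-well), add compound at 5 concentrations, incubate 48 h, interpolate endpoints linearly. The concentration for 50% growth inhibition is given as GI50. The concentration for full growth arrest is given as TGI.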

Among the test systems are IGROV1 ovarian; RXF 393 renal; MOLT-4 leukemia; UACC-62 melanoma; HCT-15 colon; M14 melanoma; COLO 205 colon; NCI-H460 lung; HOP-62 NSCLC; SF-295 CNS.
Experiment in all cases: NCI anticancer screen, dose series, 48 h

With `CC(=O)Nc1cc(CN2CCCCC2)c(O)c2ncccc12`, the TGI in the assay on IGROV1 ovarian was more than 100 µM; with RXF 393 renal, more than 100 µM; in the assay with MOLT-4 leukemia, 43.1 µM; in the assay on UACC-62 melanoma, 46.3 µM; in the assay on HCT-15 colon it was more than 100 µM; in the assay on M14 melanoma it was 68.2 µM. In addition, the TGI is more than 100 µM in the assay with COLO 205 colon, 36.9 µM in the assay on NCI-H460 lung, more than 100 µM in the assay with HOP-62 NSCLC and more than 100 µM with SF-295 CNS.

As for `C[C@H](c1ccc(Cl)cc1[N+](=O)[O-])N1C(=O)c2cc(I)ccc2NC(=O)[C@H]1c1ccc(Cl)cc1`, the GI50 in the assay on IGROV1 ovarian was 8.21 µM; in the assay with RXF 393 renal, 9.07 µM; with MOLT-4 leukemia, 8.76 µM; in the assay on UACC-62 melanoma it was more than 100 µM; in the assay on HCT-15 colon, more than 100 µM; with M14 melanoma it was 85.4 µM. The GI50 is more than 100 µM in the assay with COLO 205 colon, 6.61 µM with NCI-H460 lung, more than 100 µM in the assay with HOP-62 NSCLC and 8.18 µM in the assay on SF-295 CNS. The TGI in the assay with IGROV1 ovarian, in the assay with RXF 393 renal, with MOLT-4 leukemia, in the assay with UACC-62 melanoma, in the assay with HCT-15 colon and in the assay on M14 melanoma was more than 100 µM in each case. For the same compound, the TGI with COLO 205 colon, with NCI-H460 lung, in the assay with HOP-62 NSCLC and in the assay with SF-295 CNS was more than 100 µM each time.

Turning to `COc1ccc(-c2cc(=O)c3cccnc3[nH]2)cc1`, the TGI is more than 100 µM in the assay with IGROV1 ovarian; more than 100 µM in the assay with RXF 393 renal; more than 100 µM in the assay on MOLT-4 leukemia; 91.2 µM in the assay on UACC-62 melanoma; more than 100 µM in the assay on HCT-15 colon; 95.6 µM with M14 melanoma. Further, the TGI is 52.5 µM in the assay with COLO 205 colon, 91.4 µM with NCI-H460 lung, more than 100 µM with HOP-62 NSCLC and more than 100 µM in the assay on SF-295 CNS. For the same compound, the GI50 was 26.4 µM in the assay with NCI-H460 lung and 65 µM in the assay on SF-295 CNS.

Take `C=CC(=O)Nc1cccc(Nc2nc(Nc3ccc(N4CCN(C(C)=O)CC4)cc3OC)ncc2C(F)(F)F)c1`: the GI50 in the assay with IGROV1 ovarian was 1.94 µM and 2.71 µM; in the assay with RXF 393 renal it was 2.83 µM and 2.17 µM; in the assay on MOLT-4 leukemia it was 5.47 µM and 4.04 µM; with UACC-62 melanoma it was 2.7 µM; in the assay with HCT-15 colon, 3.06 µM and 2.94 µM; with M14 melanoma, 3.67 µM and 2.73 µM. The GI50 was 1.86 µM and 1.78 µM with COLO 205 colon; 3.87 µM and 3.24 µM in the assay on NCI-H460 lung; 6.52 µM and 6.2 µM with HOP-62 NSCLC; 6.82 µM and 8.18 µM in the assay on SF-295 CNS. The TGI in the assay with IGROV1 ovarian was 9.84 µM and 13.6 µM; in the assay on RXF 393 renal it was > 10 µM and 10.1 µM; in the assay on MOLT-4 leukemia it was more than 58.5 µM; with UACC-62 melanoma it was 22.6 µM; with HCT-15 colon, > 10 µM and 13.8 µM; with M14 melanoma, more than 100 µM. The TGI is 4.71 µM and 5.75 µM with COLO 205 colon; more than 100 µM with NCI-H460 lung; > 10 µM and 25.9 µM in the assay with HOP-62 NSCLC; > 10 µM and 23.1 µM with SF-295 CNS.

With `CC(C)CC1NC(=O)C(C(C)C)NC(=O)CC(C)COC(=O)C(CC(C)C)N(C)C(=O)C(C(C)C)NC(=O)C(C(C)C)OC1=O` (configuration not stated), the TGI in the assay on IGROV1 ovarian was more than 50 µM; in the assay on RXF 393 renal it was 35.2 µM; with MOLT-4 leukemia, more than 50 µM; in the assay with UACC-62 melanoma it was more than 50 µM; in the assay on HCT-15 colon, more than 50 µM; in the assay with M14 melanoma, more than 50 µM. Also, the TGI in the assay on COLO 205 colon, with NCI-H460 lung, in the assay with HOP-62 NSCLC and with SF-295 CNS was more than 50 µM throughout.

In the case of `NC(C(=O)O)c1ccc(C(=O)O)cc1` (configuration not stated), the TGI in the assay with IGROV1 ovarian, in the assay on RXF 393 renal, in the assay with MOLT-4 leukemia, in the assay on UACC-62 melanoma, in the assay on HCT-15 colon and in the assay on M14 melanoma was more than 100 µM in each case. Also, the TGI in the assay with COLO 205 colon, in the assay with NCI-H460 lung, with HOP-62 NSCLC and in the assay with SF-295 CNS was more than 100 µM each time.

Take `COn1cc(C(=O)N=C(SC)SC)c2ccccc21`: the GI50 in the assay on IGROV1 ovarian is 11.8 µM; with RXF 393 renal, 25 µM; in the assay on MOLT-4 leukemia, 9.42 µM; with UACC-62 melanoma, 20.2 µM; with HCT-15 colon, 22.4 µM; with M14 melanoma, 18.4 µM. In addition, the GI50 with COLO 205 colon is 30.2 µM; with NCI-H460 lung, more than 100 µM; in the assay on HOP-62 NSCLC it was 17.6 µM; in the assay with SF-295 CNS, 16.8 µM. The TGI in the assay with IGROV1 ovarian worked out at 55.5 µM; in the assay with RXF 393 renal, 96.2 µM; with MOLT-4 leukemia, 30.1 µM; with UACC-62 melanoma, 55.8 µM; with HCT-15 colon, 62.5 µM; in the assay on M14 melanoma, 48.1 µM. For the same compound, the TGI with COLO 205 colon was more than 100 µM; in the assay with NCI-H460 lung, more than 100 µM; in the assay on HOP-62 NSCLC, 51.4 µM; with SF-295 CNS, 55.4 µM.

As to `Cc1ccc(SSCCCCS(=O)O)cc1`, the TGI with IGROV1 ovarian is 18.8 µM; in the assay on RXF 393 renal it was 29.1 µM; with MOLT-4 leukemia, more than 100 µM; with UACC-62 melanoma it was 42.6 µM; in the assay on HCT-15 colon, 89.2 µM; in the assay with M14 melanoma it was 32.6 µM. The TGI with COLO 205 colon was 39.7 µM; with NCI-H460 lung, more than 100 µM; in the assay on HOP-62 NSCLC it was 81.1 µM; with SF-295 CNS it was 96.4 µM.
